Laboratory results: patent US9085551B2, “Solid forms of 3-(4-nitro-1-oxisoindolin-2-yl)piperidine-2,6-dione” (Celgene Corporation, priority 2012, dated 2015)
“Also recorded” adds a separate entry of the source.

How the values were obtained:
Assay type in all cases: physicochemical
[1] = Equilibration (slurry) of solid forms in batch solvents, solid analyzed by XRPD
Protocol: Equilibration studies using single, binary and ternary combinations of batch solvents (water, acetone, and acetonitrile) were investigated to mimic key steps in manufacturing 3-(4-nitro-1-oxoisoindolin-2-yl)piperidine-2,6-dione. Materials of 3-(4-nitro-1-oxoisoindolin-2-yl)piperidine-2,6-dione and solvent or solvent mixtures were added to a glass vial to achieve free-flowing slurry and allowed to equilibrate at the specified temperature. […] The solid phase was then dried under air and analyzed by XRPD.
A total of four batches of 3-(4-nitro-1-oxoisoindolin-2-yl)piperidine-2,6-dione were characterized by XRPD, DSC, TGA, ATR-FTIR and DVS, as described in section 6.5. The solid form represented by the batch 1 was designated as Form A; the solid form represented by the batch 4 was designated as Form B; the batches 2 and 3 were determined to be mixtures of Forms A and B, with Form B dominating the patterns. The equilibration experiments were performed using batches 2, 3 and 4, and the results are described in Table 2.
(§1) All of the solid samples generated in the polymorph screen were analyzed by XRPD. XRPD analysis was conducted on a PANalytical Empyrean or a Thermo ARL X'TRA X-ray powder diffractometer using Cu Kα radiation at 1.54 Å.

[2] = Dynamic Vapor Sorption (DVS) hygroscopicity; conditions: for total mass change between 0% and 90% relative humidity: DVS at 25° C., 0% to 90% RH; for hygroscopicity: DVS, 0% to 90% relative humidity; for XRPD pattern after adsorption/desorption cycles: after DVS
Protocol: Hygroscopicity was determined on a Surface Measurement Systems DVS. Typically a sample size of 5-30 mg was loaded into the DVS instrument sample pan and the sample was analyzed on a DVS automated sorption analyzer at 25° C. The relative humidity was increased from 0% to 90% RH at 10% RH step. The relative humidity was then decreased in a similar manner to accomplish a full adsorption/desorption cycle.

[3] = Additional form conversion experiments (heating, slurry), XRPD
Protocol: as §1

SMILES | conversion to other forms ([1]; form conversion studies) | relative thermodynamic stability of the form ([1]; form conversion studies) | total mass change between 0% and 90% relative humidity [2] [%] | hygroscopicity [2] | XRPD pattern after adsorption/desorption cycles [2] | Form by XRPD ([1]; equilibration in acetone, ambient, 8 days) | Form by XRPD ([1]; equilibration in acetone/water (1:1), ambient, 8 days) | Form by XRPD ([1]; equilibration in acetonitrile, 80° C. (or reflux), 6 hours) | Form by XRPD ([1]; equilibration in acetonitrile/water (1:1), ambient, 8 days) | Form by XRPD ([1]; equilibration in acetonitrile/water (2:1), 60° C., 6 hours) | Form by XRPD ([1]; equilibration in acetonitrile/water/acetone (1:1:1), ambient, 8 days) | Form by XRPD ([1]; equilibration in water, ambient, 8 days) | XRPD Result ([3]; heated to 220° C. for 4 hours) | form conversion ([3]; ambient temperature, NMP/acetone/water (1:2.5:2.5), time not stated) | XRPD Result ([3]; slurry in NMP/Acetone/water at ambient for 5 days) | XRPD Result ([3]; slurry in NMP/Acetone/water at ambient for 10 days)
O=C1CCC(N2Cc3c(cccc3[N+](=O)[O-])C2=O)C(=O)N1 (single isomer, unassigned) [Form A, 3-(4-nitro-1-oxoisoindolin-2-yl)piperidine-2,6-dione] | no conversion | most thermodynamically stable form | 0.42 | not hygroscopic | no change | – | – | – | – | – | – | – | – | – | – | –
O=C1CCC(N2Cc3c(cccc3[N+](=O)[O-])C2=O)C(=O)N1 (single isomer, unassigned) [Form B, 3-(4-nitro-1-oxoisoindolin-2-yl)piperidine-2,6-dione] | – | – | 0.39 | not hygroscopic | no change | converts to Form A | converts to Form A | converts to Form A | converts to Form A | converts to Form A | converts to Form A | converts to Form A | converts to Form A | – | – | –
O=C1CCC(N2Cc3c(cccc3[N+](=O)[O-])C2=O)C(=O)N1 (single isomer, unassigned) [Form C, 3-(4-nitro-1-oxoisoindolin-2-yl)piperidine-2,6-dione] | – | – | 0.43 | not hygroscopic | no change | – | – | – | – | – | – | – | partially converts to Form A; also recorded: Form A + C | converts to Form A | Form A + C | Form A + C
